For data set [1], the target named is T1, Human TRPA1 (Homo sapiens, UniProt O75762).
T1 construct: expressed in transfected cells; host or cells: CHO cells (grown with 400 μg/ml G-418)
In words: 45Calcium uptake assay: inhibition of AITC induced cellular uptake of radioactive calcium. The format is cell-based. The settings on record: human TRPA1 expressing CHO cells, AITC 30 μM; for inhibition at 1 µM: read-out: Percentage inhibition at 1.0 μM; for inhibition at 10 µM: read-out: Percentage inhibition at 10.0 μM. On the procedure: The illustrative examples of the present invention were screened for TRPA1 activity according to a modified procedure described in (a) Tóth, A. et al. Life Sciences, 2003, 73, 487-498. ([…]. et al, Proc. Natl. Acad. Sci. U.S.A., 2007, 104, 13525-13530. The screening of the compounds can be carried out by other methods and procedures known to persons skilled in the art. Screening for TRPA1 Antagonist Using the ^45Calcium Uptake Assay: The inhibition of TRPA1 receptor activation was measured as inhibition of allyl isothiocyanate (AITC) induced cellular uptake of radioactive calcium. Test compounds were dissolved in 100% DMSO to prepare 10 mM stock and then diluted using plain medium with 0.1% BSA and 1.8 mM CaCl2 to get the desired concentration. The final concentration of DMSO in the reaction was 0.5% (v/v). Human TRPA1 expressing CHO cells were grown in F-12 DMEM medium with 10% FBS, 1% penicillin-streptomycin solution, and 400 μg/ml of G-418. Cells were seeded 24 h prior to the assay in 96 well plates so as to get 50,000 cells per well on the day of experiment. Cells were treated with the test compounds for 10 minutes followed by the addition of AITC at a final concentration of 30 μM and 5 μCi/ml^45Ca^+2 for 3 minutes. Cells were washed and lysed using a buffer containing 1% Triton X-100, 0.1% deoxycholate and 0.1% SDS. Radioactivity in the lysate was measured in a Packard TopCount after addition of liquid scintillant. (Toth et al, Life Sciences (2003) 73, 487-498; McNamara C R et al, Proceedings of the National Academy of Sciences, (2007) 104, 13525-13530). Concentration response curves were plotted as a % of maximal response obtained in the absence of test antagonist. IC50 values can be calculated from concentration response curve by nonlinear regression analysis using GraphPad PRISM software.

Data set [2] can be described thus: Rat pharmacokinetic (PK) study, oral suspension. The settings on record: for pharmacokinetic properties (Cmax and AUC) compared to the parent thiazole acetamide: compared with the corresponding parent compound of formula (1). It is filed as in vivo, male rats (Sprague Dawley). The procedure: PK values were obtained in male rats (strain: Sprague Dawley) orally dosed with the compounds of the present invention as suspension. Accurately weighed quantity of compound of present invention (corrected for purity and salt factor) was transferred into a clean and dry mortar. To this mortar was added 2.5 μL/mL Tween 80 and triturated until the compound gets properly wet. To this, 0.5% (w/v) methyl cellulose suspension was added in geometric proportions and triturated thoroughly to form a uniform suspension.
Animals were provided with food and water ad libitum through out the study period. Animals were dosed orally with the compounds using a gavage needle at 10 mL/kg body weight. Blood samples (250 μl approx.) were collected from male Sprague Dawley retro orbital sinus using rat capillary tubes into 0.6 mL eppendorf tubes with tripotassium ethylenediaminetetraacetic acid (K3 EDTA) (25 μL) as anticoagulant. Samples were collected at 0.5, 1.0, 2.0, 4.0, 6.0, 8.0, 12.0 and 24.0 hr post dosing for compounds. Then samples were centrifuged immediately at 1000 g for 10 min. at 4° C. Plasma samples were separated and stored at −70° C. till analysis. Samples were processed and analyzed using LCMS/MS. Pharmacokinetic parameters were calculated using Winonlin software. Table 4 provides the pK values (Cmax, AUC) obtained in these studies.

The structures appear in SMILES notation.

T1 sequence (O75762 whole entry): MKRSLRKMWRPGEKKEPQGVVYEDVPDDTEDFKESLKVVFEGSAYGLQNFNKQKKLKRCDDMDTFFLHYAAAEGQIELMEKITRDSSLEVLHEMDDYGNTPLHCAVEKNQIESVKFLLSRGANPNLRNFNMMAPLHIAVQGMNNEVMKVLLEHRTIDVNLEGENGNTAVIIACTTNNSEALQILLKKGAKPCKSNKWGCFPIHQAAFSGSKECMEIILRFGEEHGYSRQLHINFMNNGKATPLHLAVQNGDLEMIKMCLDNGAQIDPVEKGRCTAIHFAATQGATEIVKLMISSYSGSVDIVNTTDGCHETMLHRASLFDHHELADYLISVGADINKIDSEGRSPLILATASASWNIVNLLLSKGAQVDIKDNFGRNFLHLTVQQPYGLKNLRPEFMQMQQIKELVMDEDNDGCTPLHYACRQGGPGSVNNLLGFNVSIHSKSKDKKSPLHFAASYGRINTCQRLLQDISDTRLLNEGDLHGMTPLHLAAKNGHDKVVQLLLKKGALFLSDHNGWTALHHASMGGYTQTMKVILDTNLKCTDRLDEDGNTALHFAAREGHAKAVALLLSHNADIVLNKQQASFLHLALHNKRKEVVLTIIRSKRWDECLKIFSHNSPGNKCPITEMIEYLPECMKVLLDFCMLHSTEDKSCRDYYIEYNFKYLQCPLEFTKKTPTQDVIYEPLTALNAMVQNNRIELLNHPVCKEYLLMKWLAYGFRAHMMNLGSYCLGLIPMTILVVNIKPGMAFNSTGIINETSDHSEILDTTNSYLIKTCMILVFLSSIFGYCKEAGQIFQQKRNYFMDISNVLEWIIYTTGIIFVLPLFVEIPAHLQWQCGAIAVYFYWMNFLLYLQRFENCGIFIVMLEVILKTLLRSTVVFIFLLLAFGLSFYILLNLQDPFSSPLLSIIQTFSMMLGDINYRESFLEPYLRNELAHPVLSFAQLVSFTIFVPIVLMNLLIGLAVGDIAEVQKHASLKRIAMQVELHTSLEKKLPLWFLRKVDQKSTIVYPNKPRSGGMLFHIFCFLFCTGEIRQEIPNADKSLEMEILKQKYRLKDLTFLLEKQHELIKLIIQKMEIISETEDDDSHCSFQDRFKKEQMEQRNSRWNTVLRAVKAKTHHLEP

A word on the inhibition: it is the relative decrease from the control value, in per cent. The IC50 is the point on the concentration scale where inhibition reaches its midpoint. Regarding `CC[C@H](C)[C@H](N)C(=O)OCn1c(-c2ccc(C(F)(F)F)c(F)c2)cs/c1=N\C(=O)Cc1csc2c1c(=O)n(C)c(=O)n2C.Cl` [Example 6, [2-{[(1,3-Dimethyl-2,4-dioxo-1,2,3,4-tetrahydrothieno[2,3-d]pyrimidin-5-yl)acetyl]imino}-4-[3-fluoro-4-(trifluoromethyl)phenyl]-1,3-thiazol-3(2H)-yl]methyl L-isoleucinate hydrochloride], in data set [1], the inhibition at 1 µM turned out to be 89.8%, the inhibition at 10 µM was found to be 98.6% and the IC50 was in the range of 100 to 500 nM. For the same compound, the “pharmacokinetic properties (Cmax and AUC) compared to the parent thiazole acetamide” value in data set [2] is “better pharmacokinetic properties”.
Take `CC[C@H](C)[C@H](N)C(=O)OCn1c(-c2ccc(F)c(C(F)(F)F)c2F)cs/c1=N\C(=O)Cc1csc2c1c(=O)n(C)c(=O)n2C.Cl` [Example 7, [4-[2,4-Difluoro-3-(trifluoromethyl)phenyl]-2-{[(1,3-dimethyl-2,4-dioxo-1,2,3,4-tetrahydrothieno[2,3-d]pyrimidin-5-yl)acetyl]imino}-1,3-thiazol-3 (2H)-yl]methyl L-isoleucinate hydrochloride]: in data set [1], the inhibition at 1 µM was 98.6%, the inhibition at 10 µM is 99.6% and the IC50 was less than 100 nM. For the same compound, the “pharmacokinetic properties (Cmax and AUC) compared to the parent thiazole acetamide” value in data set [2] is “better pharmacokinetic properties”.
With `Cc1oc2c(c1CC(=O)/N=c1\scc(-c3ccc(OC(F)(F)F)c(Cl)c3)n1COC(=O)CN)c(=O)n(C)c(=O)n2C.Cl` [Example 20, [4-[3-Chloro-4-(trifluoromethoxy)phenyl]-2-{[(1,3,6-trimethyl-2,4-dioxo-1,2,3,4-tetrahydrofuro[2,3-d]pyrimidin-5-yl)acetyl]imino}-1,3-thiazol-3 (2H)-yl]methyl glycinate hydrochloride], in data set [1], the inhibition at 1 µM is 96.7%, the inhibition at 10 µM is 96.2% and the half-inhibitory concentration (IC50) is less than 100 nM. In addition, in data set [2], the “pharmacokinetic properties (Cmax and AUC) compared to the parent thiazole acetamide” value is “better pharmacokinetic properties”.
For `Cc1oc2c(c1CC(=O)/N=c1\scc(-c3ccc(C(F)(F)F)c(F)c3F)n1COP(=O)(O)O)c(=O)n(C)c(=O)n2C` [Example 27, 4-[2,3-Difluoro-4-(trifluoromethyl)phenyl]-2-{[(1,3,6-trimethyl-2,4-dioxo-1,2,3,4-tetrahydrofuro[2,3-d]pyrimidin-5-yl)acetyl]imino}-1,3-thiazol-3(2H)-yl]methyl dihydrogen phosphate], in data set [1], the inhibition at 1 µM came to 93.8%, the inhibition at 10 µM was determined as 99.3% and the half-maximal inhibitory concentration (IC50) is less than 100 nM.
As to `Cn1c(=O)c2c(CC(=O)/N=c3\scc(-c4ccc(C(F)(F)F)c(F)c4F)n3COP(=O)(O)O)nsc2n(C)c1=O` [Example 31, [4-[2,3-Difluoro-4-(trifluoromethyl)phenyl]-2-{[(5,7-dimethyl-4,6-dioxo-4,5,6,7-tetrahydro[1,2]thiazolo[5,4-d]pyrimidin-3-yl)acetyl]imino}-1,3-thiazol-3 (2H)-yl]methyl dihydrogen phosphate], in data set [1], the inhibition at 1 µM came out at 60%, the inhibition at 10 µM was 99.2% and the IC50 is more than 500 nM.
Take `Cn1c(=O)c2c(CC(=O)N=c3scc(-c4ccc(C(F)(F)F)c(F)c4F)n3COP(=O)(O)O)nsc2n(C)c1=O` [Example 32, Disodium-(4-(2,3-difluoro-4-(trifluoromethyl)phenyl)-2-((2-(5,7-dimethyl-4,6-dioxo-4,5,6,7-tetrahydroisothiazolo[5,4-d]pyrimidin-3-yl)acetyl)imino)thiazol-3 (2H)-yl)methyl phosphate]: in data set [1], the inhibition at 1 µM is 13.8%, the inhibition at 10 µM came to 81% and the IC50 was more than 500 nM.
One may read the Cmax as the maximum level reached in the sampled fluid or tissue. As to `Cn1c(=O)c2c(CC(=O)Nc3nc(-c4ccc(C(F)(F)F)c(F)c4F)cs3)nsc2n(C)c1=O` [parent of Example 31, N-{4-[2,3-difluoro-4-(trifluoromethyl)phenyl]-1,3-thiazol-2-yl}-2-(5,7-dimethyl-4,6-dioxo-4,5,6,7-tetrahydro[1,2]thiazolo[5,4-d]pyrimidin-3-yl)acetamide, reference compound], the Cmax in data set [2] (rat, plasma, parent thiazole compound of the example, male Sprague Dawley rats, oral suspension) is less than 250 ng/mL. The AUC(0-t) in data set [2] (rat, plasma, parent thiazole compound of the example, male Sprague Dawley rats, oral suspension, read-out: AUC0-24) was less than 2500 ng·h/mL.

The values are drawn from patent US9073955B2, “2-amino-4-arylthiazole compounds as TRPA1 antagonists” (Glenmark Pharmaceuticals, S.A., priority 2010, dated 2015).
